Like-named read-outs stand apart in the source and are kept apart here.
Columns and labels:
Huh7 cell line = assay: MTT assay for HCV replicon reporter cell lines (cell toxicity); format: cell-based; details: Homo sapiens
HCV 1b RNA replicon = assay: Luciferase assay for HCV genotype 1b replicon reporter cell lines
HCV RNA replication = assay: Luciferase assay of HCV RNA replication (Table 3); details: Hepatitis C virus, read-out: Residual Luciferase activity
[1] = Huh-7, cell toxicity, MTT, top concentration 25 μM, read-out: Cell Viability EC50
[2] = Hepatitis C virus, Huh-7, 48 h, read-out: 1b EC50, 1b replicon, Huh7, 48 hours, top concentration 25 μM
[3] = Huh-7, read-out: Cell Viability EC50

`C[C@H]1CCCN1CCCOc1nn(Cc2ccc(Cl)cc2)c2ccc(N3CCCCCC3)cc12` [EBP918] was tested, and the EC50 (Huh7 cell line; [1]) was 11 µM and the EC50 (HCV 1b RNA replicon; [2]) was 8.2 µM.
In the case of `C[C@H]1CCCN1CCCOc1nn(Cc2ccc(Cl)cc2)c2ccc(-c3ccncc3)cc12` [EBP904], the EC50 (Huh7 cell line; [1]) is reported as over 25 µM and the EC50 (HCV 1b RNA replicon; [2]) is reported as 8.2 µM.
In the case of `Cc1ccc2c(c1)c(OCCCN(C)C)nn2Cc1ccccc1` [Compound 187], the activity at 5 µM (HCV RNA replication) is reported as 55 to 80% and the activity at 10 µM (HCV RNA replication) is reported as 20 to 54%.
Compound `c1ccc(Cn2ncc3ccccc32)cc1` [Compound 185] has an activity at 5 µM (HCV RNA replication) of over 80% and an activity at 10 µM (HCV RNA replication) of over 80%.
Work on `COC[C@H]1CCCN1CCCOc1nn(Cc2ccc(Cl)cc2)c2ccc(N(C)c3ccccc3)cc12` [EBP522] yielded an EC50 (Huh7 cell line; [1]) of over 25 µM and an EC50 (HCV 1b RNA replicon; [2]) of 6 µM.
`CN(C)CCOc1nn(Cc2ccccc2)c2ccccc12` [Compound 195] was tested, and the activity at 5 µM (HCV RNA replication) was over 80% and the activity at 10 µM (HCV RNA replication) was over 80%.
With `Cc1cc2nn(Cc3ccc(Cl)cc3)cc2cc1Br` [Compound 208] the activity at 5 µM (HCV RNA replication) was 55 to 80% and the activity at 10 µM (HCV RNA replication) was 20 to 54%.
Compound `Cc1cc2nn(Cc3ccc(Cl)cc3)cc2cc1Cl` [Compound 206] has an activity at 5 µM (HCV RNA replication) of over 80% and an activity at 10 µM (HCV RNA replication) of 55 to 80%.
For `O=[N+]([O-])c1cc2cn(Cc3ccc(Cl)cc3)nc2cc1Cl` [Compound 209], the activity at 5 µM (HCV RNA replication) was over 80% and the activity at 10 µM (HCV RNA replication) was over 80%.
`OC[C@@H]1CCCN1CCCOc1nn(Cc2ccc(Cl)cc2)c2ccc(Cl)cc12` [EBP647] was tested, and the EC50 (Huh7 cell line; [1]) was over 25 µM and the EC50 (HCV 1b RNA replicon; [2]) was 7.6 µM.
`O=[N+]([O-])c1cc2cnn(Cc3ccc(Cl)cc3)c2cc1Cl` [Compound 203] was tested, and the activity at 5 µM (HCV RNA replication) was over 80% and the activity at 10 µM (HCV RNA replication) was 20 to 54%.
For `Clc1ccc(Cn2cc3cc(Br)ccc3n2)cc1` [Compound 211], the activity at 5 µM (HCV RNA replication) was over 80% and the activity at 10 µM (HCV RNA replication) was 55 to 80%.
Compound `OCC1CCN(CCCOc2nn(Cc3ccc(Cl)cc3)c3ccccc23)CC1` [EBP502] has an EC50 (Huh7 cell line; [1]) of over 25 µM and an EC50 (HCV 1b RNA replicon; [2]) of 4.2 µM.
Compound `C[C@H]1CCCN1CCCOc1nn(Cc2ccc(Cl)cc2)c2ccc(-c3cnc(N)nc3)cc12` [EBP903] has an EC50 (Huh7 cell line; [1]) of over 25 µM and an EC50 (HCV 1b RNA replicon; [2]) of 6.5 µM.
In the case of `Clc1ccc(Cn2nc(OCCCN3CCC[C@H]3CN3CCCC3)c3cc(Cl)ccc32)cc1` [EBP649], the EC50 (Huh7 cell line; [1]) is reported as over 25 µM and the EC50 (HCV 1b RNA replicon; [2]) is reported as 5.6 µM.
`Cc1ccc2c(c1)c(O)nn2Cc1ccccc1` [Compound 188] gave an activity at 5 µM (HCV RNA replication) of over 80% and an activity at 10 µM (HCV RNA replication) of 20 to 54%.
For `CS(=O)(=O)Nc1ccc2c(c1)c(OCCCN1CCCC1)nn2Cc1ccc(Cl)cc1` [EBP532], the EC50 (Huh7 cell line; [1]) was over 25 µM and the EC50 (HCV 1b RNA replicon; [2]) was 8.5 µM.
`Cc1cc2cnn(Cc3ccc(Cl)cc3)c2cc1Br` [Compound 201] was tested, and the activity at 5 µM (HCV RNA replication) was over 80% and the activity at 10 µM (HCV RNA replication) was 55 to 80%.
`C[C@H]1CCCN1CCCOc1nn(Cc2ccc(Cl)cc2)c2ccc(-c3ccoc3)cc12` [EBP864] was tested, and the EC50 (Huh7 cell line; [1]) was over 25 µM and the EC50 (HCV 1b RNA replicon; [2]) was 6.4 µM.
`Clc1ccc(Cn2nc(OCCCN3CC=CC3)c3ccccc32)cc1` [EBP519] gave an EC50 (Huh7 cell line; [3]) of over 25 µM and an EC50 (HCV 1b RNA replicon; [2]) of 18 µM.
Work on `Cc1ccc2c(c1)c(OCCN1CCCC1)nn2Cc1ccccc1` [Compound 196] yielded an activity at 5 µM (HCV RNA replication) of 55 to 80% and an activity at 10 µM (HCV RNA replication) of 20 to 54%.
In the case of `C[C@H]1CCCN1CCCOc1nn(Cc2ccc(Cl)cc2)c2ccc(Br)cc12` [EBP743], the EC50 (HCV 1b RNA replicon; [2]) is reported as 8.1 µM.
With `Cc1cc2cn(Cc3ccc(Cl)cc3)nc2cc1Br` [Compound 207] the activity at 5 µM (HCV RNA replication) was over 80% and the activity at 10 µM (HCV RNA replication) was 55 to 80%.
With `FC(F)(F)c1ccc2cn(Cc3ccc(Cl)cc3)nc2c1` [Compound 212] the activity at 5 µM (HCV RNA replication) was 55 to 80% and the activity at 10 µM (HCV RNA replication) was 20 to 54%.
Work on `Cc1ccncc1-c1ccc2c(c1)c(OCCCN1CCC[C@@H]1C)nn2Cc1ccc(Cl)cc1` [EBP901] yielded an EC50 (Huh7 cell line; [1]) of over 25 µM and an EC50 (HCV 1b RNA replicon; [2]) of 5.5 µM.
Compound `Cl.c1ccc(Cn2nc(OCCN3CCCCC3)c3ccccc32)cc1` [Compound 190] has an activity at 5 µM (HCV RNA replication) of over 80% and an activity at 10 µM (HCV RNA replication) of 55 to 80%.
`Clc1ccc(Cn2nc(OCC3CCCNC3)c3cc(Cl)ccc32)cc1` (stereo not drawn) [EBP590] showed an EC50 (Huh7 cell line; [1]) of 11 µM and an EC50 (HCV 1b RNA replicon; [2]) of 7.3 µM.
In the case of `Cc1cc2nn(Cc3ccc(Cl)cc3)cc2cc1[N+](=O)[O-]` [Compound 210], the activity at 5 µM (HCV RNA replication) is reported as 20 to 54% and the activity at 10 µM (HCV RNA replication) is reported as 20 to 54%.
With `COc1cncc(-c2ccc3c(c2)c(OCCCN2CCC[C@@H]2C)nn3Cc2ccc(Cl)cc2)c1` [EBP898] the EC50 (Huh7 cell line; [1]) was over 25 µM and the EC50 (HCV 1b RNA replicon; [2]) was 5.3 µM.
With `Clc1ccc(Cn2ncc3cc(Br)ccc32)cc1` [Compound 205] the activity at 5 µM (HCV RNA replication) was over 80% and the activity at 10 µM (HCV RNA replication) was 55 to 80%.
Work on `Cl.c1ccc(Cn2nc(OCCN3CCCC3)c3ccccc32)cc1` [Compound 194] yielded an activity at 5 µM (HCV RNA replication) of over 80% and an activity at 10 µM (HCV RNA replication) of 55 to 80%.
Work on `Oc1nn(Cc2ccccc2)c2ccccc12` [Compound 189] yielded an activity at 5 µM (HCV RNA replication) of over 80% and an activity at 10 µM (HCV RNA replication) of over 80%.
For `O[C@@H]1CCN(CCCOc2nn(Cc3ccc(Cl)cc3)c3ccc(Cl)cc23)C1` [EBP644], the EC50 (Huh7 cell line; [1]) was over 25 µM and the EC50 (HCV 1b RNA replicon; [2]) was 7.5 µM.
For `Clc1ccc(Cn2nc(OCCCN3CC4CC3CO4)c3ccccc32)cc1` (stereo not drawn) [EBP528], the EC50 (Huh7 cell line; [3]) was 8.4 µM and the EC50 (HCV 1b RNA replicon; [2]) was 7.9 µM.
`C[C@H]1CCCN1CCCOc1nn(Cc2ccc(Cl)cc2)c2ccc(-c3ccc(N4CCOCC4)nc3)cc12` [EBP899] gave an EC50 (Huh7 cell line; [1]) of over 25 µM and an EC50 (HCV 1b RNA replicon; [2]) of 2.2 µM.
In the case of `C[C@H]1CCCN1CCCOc1nn(Cc2ccc(Cl)cc2)c2ccc(Cl)cc12` [EBP646], the EC50 (Huh7 cell line; [1]) is reported as over 25 µM and the EC50 (HCV 1b RNA replicon; [2]) is reported as 6.6 µM.
For `Cc1cc2c(cnn2Cc2ccc(Cl)cc2)cc1Cl` [Compound 200], the activity at 5 µM (HCV RNA replication) was over 80% and the activity at 10 µM (HCV RNA replication) was 55 to 80%.
For `C[C@H]1CCCN1CCCOc1nn(Cc2ccc(Cl)cc2)c2ccc(NC3CCCCC3)cc12` [EBP917], the EC50 (Huh7 cell line; [1]) was over 25 µM and the EC50 (HCV 1b RNA replicon; [2]) was 8 µM.
`CC(=O)Nc1ccc(-c2ccc3c(c2)c(OCCCN2CCC[C@@H]2C)nn3Cc2ccc(Cl)cc2)cn1` [EBP900] gave an EC50 (Huh7 cell line; [1]) of over 25 µM and an EC50 (HCV 1b RNA replicon; [2]) of 5.6 µM.
With `CN(C)CCCOc1nn(Cc2ccccc2)c2ccccc12` [Compound 184] the activity at 5 µM (HCV RNA replication) was over 80% and the activity at 10 µM (HCV RNA replication) was 20 to 54%.
`Cc1cc2c(cnn2Cc2ccc(Cl)cc2)cc1[N+](=O)[O-]` [Compound 204] showed an activity at 5 µM (HCV RNA replication) of 55 to 80% and an activity at 10 µM (HCV RNA replication) of 20 to 54%.
For `COCC1CCN(CCCOc2nn(Cc3ccc(Cl)cc3)c3ccccc23)CC1` [EBP530], the EC50 (Huh7 cell line; [1]) was over 25 µM and the EC50 (HCV 1b RNA replicon; [2]) was 7.9 µM.
For `Cc1cc2c(cnn2Cc2ccc(Cl)cc2)cc1Br` [Compound 202], the activity at 5 µM (HCV RNA replication) was over 80% and the activity at 10 µM (HCV RNA replication) was over 80%.
Work on `Nc1ccc2c(c1)c(OCCCN1CCCC1)nn2Cc1ccc(Cl)cc1` [EBP531] yielded an EC50 (Huh7 cell line; [1]) of over 25 µM and an EC50 (HCV 1b RNA replicon; [2]) of 3.9 µM.
`O[C@@H]1CN(CCCOc2nn(Cc3ccc(Cl)cc3)c3ccccc23)C[C@@H]1O` [EBP514] was tested, and the EC50 (Huh7 cell line; [1]) was over 25 µM and the EC50 (HCV 1b RNA replicon; [2]) was 5.1 µM.
`C[C@H]1CCCN1CCCOc1nn(Cc2ccc(Cl)cc2)c2ccc(N3CCCCC3)cc12` [EBP865] gave an EC50 (HCV 1b RNA replicon; [2]) of 8.2 µM.
`c1ccc(Cn2nc(OCCCN3CCCCC3)c3ccccc32)cc1` [Compound 198] was tested, and the activity at 5 µM (HCV RNA replication) was 20 to 54% and the activity at 10 µM (HCV RNA replication) was under 20%.
`Cc1ccc2c(c1)c(OCCCN1CCCCC1)nn2Cc1ccccc1` [Compound 199] gave an activity at 5 µM (HCV RNA replication) of 20 to 54% and an activity at 10 µM (HCV RNA replication) of under 20%.
Work on `C[C@H]1CCCN1CCCOc1nn(Cc2ccc(Cl)cc2)c2ccc(-c3cccnc3)cc12` [EBP846] yielded an EC50 (HCV 1b RNA replicon; read-out: 1b EC50, 1b replicon, Huh7, 48 hours, top concentration 25 μM) of 8.2 µM.
`Cl.c1ccc(Cn2nc(OCCCN3CCCC3)c3ccccc32)cc1` [Compound 192] showed an activity at 5 µM (HCV RNA replication) of 55 to 80% and an activity at 10 µM (HCV RNA replication) of 20 to 54%.
Work on `Cc1ccc2c(c1)c(OCCN1CCCCC1)nn2Cc1ccccc1.Cl` [Compound 191] yielded an activity at 5 µM (HCV RNA replication) of 55 to 80% and an activity at 10 µM (HCV RNA replication) of under 20%.
Compound `Cc1ccc2c(c1)c(OCCCN1CCCC1)nn2Cc1ccccc1` [Compound 193] has an activity at 5 µM (HCV RNA replication) of 20 to 54% and an activity at 10 µM (HCV RNA replication) of under 20%.
Compound `Cc1ccc2c(c1)c(OCCN(C)C)nn2Cc1ccccc1` [Compound 197] has an activity at 5 µM (HCV RNA replication) of over 80% and an activity at 10 µM (HCV RNA replication) of 20 to 54%.
Compound `Brc1ccc(Cn2ncc3ccccc32)cc1` [Compound 186] has an activity at 5 µM (HCV RNA replication) of over 80% and an activity at 10 µM (HCV RNA replication) of over 80%.
